The source of these data is article PMC8651256 (Environmental science & technology, 2021).

The EC50 is the midpoint of the concentration-response curve. The low end stands for an effect from little substance, the high end for a need for much substance. One may read the ΔTm as the change in melting temperature against a reference sample. As usually defined, the Kd is the free concentration of one partner at which half of the binding sites on the other are occupied at equilibrium, for simple one-to-one binding. A high value points to a looser complex.

The target of series [1] is human serum albumin (HSA) (Homo sapiens, UniProt P02768). In words: Differential scanning fluorimetry. The conditions noted are these: for EC50 / ΔTm / Kd / HSA binding (in words): 0.125 mM HSA; for EC50: 4-parameter variable slope model; for EC50 / Kd: mean ± SD; for ΔTm: maximal melting temperature shift; for thermal shift profile at different reaction volumes (volatility check): volumes of 10, 20, 50 and 200 μL per sealed well; for HSA binding (in words): DSF.
Chain of human serum albumin (HSA) (P02768 25-609): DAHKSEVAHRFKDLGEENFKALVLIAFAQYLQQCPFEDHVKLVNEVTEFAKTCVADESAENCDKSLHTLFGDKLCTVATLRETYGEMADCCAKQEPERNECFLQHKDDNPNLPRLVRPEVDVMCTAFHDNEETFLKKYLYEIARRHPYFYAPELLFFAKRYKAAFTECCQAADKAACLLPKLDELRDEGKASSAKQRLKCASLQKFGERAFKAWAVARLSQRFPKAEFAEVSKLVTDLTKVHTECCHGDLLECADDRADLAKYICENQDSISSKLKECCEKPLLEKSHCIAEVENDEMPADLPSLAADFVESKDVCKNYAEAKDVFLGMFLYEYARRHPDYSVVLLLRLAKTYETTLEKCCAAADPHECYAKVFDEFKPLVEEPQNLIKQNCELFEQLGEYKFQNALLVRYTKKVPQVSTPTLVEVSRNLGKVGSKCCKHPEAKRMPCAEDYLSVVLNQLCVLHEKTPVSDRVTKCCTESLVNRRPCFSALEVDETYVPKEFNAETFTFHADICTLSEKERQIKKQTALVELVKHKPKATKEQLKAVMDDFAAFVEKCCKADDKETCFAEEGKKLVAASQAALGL

The conditions of series [2]: DMSO as solvent; cited from earlier work.
Where [3] appears, read: PFAS, single-site ligand binding model.

Entries after “also recorded” stand apart in the source; their conditions may differ.

For `O=C(O)C(F)(F)C(F)(F)C(F)(F)F` [PFBA, perfluorobutanoic acid], in series [1] (PFAS), a half-maximal effect (EC50) was put at 2.61 ± 0.47 mM and the ΔTm came out at 6.48 ± 0.18 °C. Moreover, the dissociation constant Kd in series [1] (setting [3]) came to 2.57 ± 0.78 mM.
The matching figures for `O=C(O)CCC(F)(F)C(F)(F)C(F)(F)F` [3:3 FTCA, 2H,2H,3H,3H-perfluorohexanoic acid]: 2.06 ± 0.51 mM, 2.24 ± 0.062 °C and 1.71 ± 0.47 mM.
Take `O=S(=O)(O)CCC(F)(F)C(F)(F)C(F)(F)C(F)(F)C(F)(F)C(F)(F)F` [6:2 FTSA, 2H,2H,3H,3H-perfluorooctane-1-sulfonate]: in series [1] (PFAS), the EC50 is 0.47 ± 0.29 mM and the ΔTm came out at 3.60 ± 0.47 °C. In series [1] (setting [3]), the Kd was determined as 0.37 ± 0.34 mM. Further, in series [1], the “thermal shift profile at different reaction volumes (volatility check)” value is “no differences”.
As to `O=S(=O)(O)CCC(F)(F)C(F)(F)C(F)(F)C(F)(F)F` [4:2 FTSA, 2H,2H,3H,3H-perfluorohexanesulfonic acid], in series [1] (PFAS), the EC50 is 1.45 ± 0.34 mM and the ΔTm stood at 3.49 ± 0.12 °C. In addition, in series [1] (setting [3]), the affinity, expressed as Kd, was 1.07 ± 0.47 mM.
`O=C(O)C(F)(F)C(F)(F)C(F)(F)C(F)(F)C(F)(F)C(F)(F)C(F)(F)C(F)(F)F` [PFNA, perfluorononanoic acid]: in series [1] (PFAS), the EC50 is 0.6 ± 0.23 mM and the ΔTm is 13.4 ± 0.34 °C. Besides, the Kd in series [1] (setting [3]) came to 0.58 ± 0.21 mM.
In series [1] (EC50, PFAS), `O=C(O)C(F)(F)C(F)(F)C(F)(F)C(F)(F)C(F)(F)C(F)(F)C(F)(F)F` [PFOA, perfluorooctanoic acid] came in with an EC50 of 0.84 ± 0.15 mM. In addition, the Kd in series [1] (Kd, PFOA stock in HEPES-buffered saline (HBS)) is 0.83 ± 0.27 mM; in series [1] (Kd, PFOA stock in methanol (30% in HBS)) it was 0.83 ± 0.15 mM.
For the compound `O=S(=O)(O)C(F)(F)C(F)(F)C(F)(F)C(F)(F)C(F)(F)C(F)(F)F` [PFHxS, perfluorohexanesulfonic acid], the “thermal shift profile at different reaction volumes (volatility check)” value in series [1] is “no differences”.
As for `O=C(O)CCC(F)(F)C(F)(F)C(F)(F)C(F)(F)C(F)(F)C(F)(F)C(F)(F)C(F)(F)F` [8:3 FTCA, 2,H,2H,3H,3H-perfluoroundecanoate], in series [1] (PFAS), the EC50 amounted to 1.16 ± 0.42 mM and the ΔTm came out at 10.01 ± 0.17 °C. In series [1] (setting [3]), binding was put at a Kd of 0.97 ± 0.17 mM.
As to `O=S(=O)(O)C(F)(F)C(F)(F)C(F)(F)C(F)(F)C(F)(F)C(F)(F)C(F)(F)C(F)(F)F` [PFOS, perfluorooctanesulfonic acid], in series [1] (PFAS), the midpoint of the response, the EC50, lay at 1.13 ± 0.32 mM and the ΔTm came out at 16.2 ± 0.90 °C.
Take `OCCC(F)(F)C(F)(F)C(F)(F)C(F)(F)C(F)(F)C(F)(F)F` [6:2 FTOH, 1H,1H,2H,2H-perfluorooctanol]: in series [1], the “HSA binding (in words)” value was “not bound by HSA; also recorded: did not bind HSA” and the “thermal shift profile at different reaction volumes (volatility check)” value is “no differences”. Also, the ΔTm in series [1] (PFAS) came to 0 ± 0 °C.
In the case of `O=S(=O)(O)C(F)(F)C(F)(F)C(F)(F)C(F)(F)F` [PFBS, perfluorobutanesulfonic acid], in series [1] (PFAS), the midpoint of the response, the EC50, lay at 1.72 ± 0.56 mM and the ΔTm was 11.9 ± 0.11 °C. The same compound yielded a Kd in series [1] (setting [3]) of 1.65 ± 0.69 mM.
As for `O=C(O)C(F)(OC(F)(F)C(F)(F)C(F)(F)F)C(F)(F)F` (stereo not shown) [HFPO-DA, hexafluoropropylene oxide dimer acid], in series [1] (PFAS), the response was half-maximal at 1.83 ± 0.87 mM (EC50) and the ΔTm stood at 13.7 ± 0.17 °C. In series [1] (setting [3]), this compound returned a Kd of 1.6 ± 0.55 mM. The “time to rapid and complete conversion of HFPO-DA to E1” value in series [2] is given as “under 4 h”.
With `FC(OC(F)(F)C(F)(F)C(F)(F)F)C(F)(F)F` (stereo not shown) [E1, 1,1,1,2,2,3,3-heptafluoro-3-(1,2,2,2-tetrafluoroethoxy)propane], the “HSA binding (in words)” value in series [1] was “bound by albumin”. A half-maximal effect in series [1] (EC50, PFAS) (EC50) was put at 2.34 ± 0.56 mM.
In the case of `O=S(=O)(O)C(F)(F)C(F)(F)OC(F)(C(F)(F)F)C(F)(F)OC(F)C(F)(F)F` (stereo not shown) [Nafion bp2], in series [1] (PFAS), the EC50 stood at 1.9 ± 0.59 mM and the ΔTm amounted to 12.4 ± 0.17 °C. Also, in series [1] (setting [3]), binding was put at a Kd of 1.51 ± 0.37 mM.
The matching figures for `O=C(O)CCC(F)(F)C(F)(F)C(F)(F)C(F)(F)C(F)(F)C(F)(F)F` [6:3 FTCA, 2,H,2H,3H,3H-perfluorononanoic acid]: 0.84 ± 0.21 mM, 9.50 ± 0.20 °C and 0.81 ± 0.23 mM.
For `O=C(O)C(F)(F)C(F)(F)C(F)(F)C(F)(F)C(F)(F)C(F)(F)C(F)(F)C(F)(F)C(F)(F)F` [PFDA, perfluorodecanoic acid], in that order: 1.11 ± 0.17 mM, 17.2 ± 0.13 °C and 1.19 ± 0.59 mM.
For `O=C(O)C(F)(F)C(F)(F)C(F)(F)C(F)(F)F` [PFPeA, perfluoropentanoic acid], in that order: 2.14 ± 0.42 mM, 13.1 ± 0.066 °C and 2.1 ± 0.56 mM.
Turning to `OCCC(F)(F)C(F)(F)C(F)(F)C(F)(F)F` [4:2 FTOH, 1H,1H,2H,2H-perfluorohexane-1-ol], in series [1], the “HSA binding (in words)” value is given as “not bound by HSA; also recorded: did not bind HSA” and the “thermal shift profile at different reaction volumes (volatility check)” value is listed as “no differences”. The ΔTm in series [1] (PFAS) stood at 0 ± 0 °C.
On to `O=C(O)C(F)(F)C(F)(F)C(F)(F)C(F)(F)C(F)(F)F` [PFHxA, Perfluorohexanoic acid], for which, in series [1] (PFAS), the EC50 came out at 1.4 ± 0.27 mM and the ΔTm stood at 10.6 ± 0.24 °C. In series [1] (setting [3]), this compound returned a Kd of 1.64 ± 0.47 mM.
The matching figures for `O=C(O)C(F)(F)C(F)(F)C(F)(F)C(F)(F)C(F)(F)C(F)(F)C(F)(F)C(F)(F)C(F)(F)C(F)(F)F` [PFunDA, Perfluoroundecanoic acid]: 1.49 ± 0.048 mM, 9.02 ± 0.47 °C and 1.36 ± 1.06 mM.
For `O=C(O)CCC(F)(F)C(F)(F)C(F)(F)C(F)(F)C(F)(F)F` [5:3 FTCA, 2H,2H,3H,3H-perfluorooctanoic acid], in that order: 1.48 ± 0.24 mM, 3.62 ± 0.14 °C and 0.62 ± 0.1 mM.
